Measured values from patent publication US20160113911A1, “METHODS AND COMPOSITIONS FOR THE TREATMENT OF CANCER” (THE GENERAL HOSPITAL CORPORATION, priority 2013, published 2016).
Positions count from the first letter of the chain named. Numbers in names are those of the source.

Tests used:
RPE cells [1] = assay: Apoptosis by annexin V staining; type: cell-based, human; settings: RPE CTRL and KDM4A overexpressing cells
KDM4A = KDM4A protein levels by western blot; type: cell-based, human; settings: RPE cells
Method: Western blot analyses were performed according to (Black et al., 2010).
Western blots were performed as in (Black et al., 2010). Briefly, adherent cells were either scraped directly into PBS, or washed with PBS, trypsinized and collected by centrifuging at 2,000 RPM for 5 minutes. For preparation of whole-cell lysates, cell pellets were washed once in ice-cold PBS and resuspended in RIPA lysis buffer [50 mM Tris pH 7.4, 150 mM NaCl, 0.25% Sodium Deoxycholate, 1% NP40, 1 mM EDTA, 10% Glycerol] supplemented with complete protease inhibitor and PhosSTOP™ phosphatase inhibitor cocktails (Roche). Cells were lysed on ice for 15 minutes and immediately frozen at −80° C. for 10 min. Lysates were subsequently sonicated at 70% amplitude for 15 minutes in a QSonica Q800R™ and cleared of cell debris by centrifuging at 12,000 RPM for 15 minutes, before being analyzed by western blotting. For HIF1α expression, adherent cells were washed twice with ice-cold PBS and scraped directly in warmed 1× Laemmli buffer. Samples were sonicated at 70% amplitude for 15 minutes and boiled immediately prior to western blotting.

RPE cells [2] = assay: Flow cytometry cell cycle analysis; type: cell-based, human
Method: Asynchronously growing, or G1/S arrested cells were prepared and fixed as in (Black et al., 2010). Cells were stained with 10 μM EdU for 1 hour prior to collection. Cell cycle was analyzed by PI staining or EdU incorporation using Click-IT EdU™ Flow Cytometry Assay Kit (Life Technologies). Flow cytometry of CD4+ T cells and cell cycle distribution were analyzed using a BD FACS ARIA II™.

[3] = system: 1q12h copy gain in RPE cells; assay: FISH for site-specific copy gain; type: cell-based, human; settings: RPE cells
Method: FISH was performed as described in (Manning et al., 2010). Probes for 1q12h, 1q telomere, and chromosome 2, 6, 8, and X alpha satellite were purchased from Rainbow Scientific. Probes for 1q12 (RP11-80L2), Xq13.2 (RP11-451A22), Xq13.1 (RP11-177A4) were purchased as BAC clones from Children's Hospital Oakland Research Institute (CHORI BacPac) FISH verified clone repository. Oligonucleotide probes for 1q21.2 (BCL9) and 1q23.3 were purchased from Agilent (SureFISH). BACS were prepared utilizing PureLink HiPure Plasmid Filter Maxiprep kit (Life Technologies) using the recommended modified wash buffer. Probes were nick translated (Abbot Molecular Kit) in the presence of fluorescently labeled dTTP (Enzo Life Science). Images of multiple planes of fields of nuclei were acquired on an Olympus IX81 Spinning Disk Microscope and analyzed using Slidebook 5.0 software. We used a conservative scoring metric for copy gain. Any foci that were touching were scored as a single foci to prevent increased numbers due to normally replicated foci. For RPE cells, copy gain was scored as any cell with 3 or more distinct foci. For 293T cells, copy gain was scored for any cell with 5 or more distinct foci. For RPE cells each experiment includes at least one replicate from the two different polyclonal stable cell preparations. At least 100 cells for each replicate were scored for all experiments except analysis of single cell clones.
Cells were plated onto culture dishes and allowed to adhere for 20-24 hrs in normoxia (5% CO2, 21% O2, and 74% N2). For hypoxic treatment, cells were maintained in a HERA Cell 150™ incubator (Thermo Scientific) flushed with 5% CO2, 1% O2 or 4% O2, and balanced with N2 for the duration of the experiment. Incubator calibrations were carried out by Bianchi Associates Calibrations/Verifications.
To release, cells were washed twice with culture medium pre-conditioned in normoxia or hypoxia, and supplied with fresh pre-conditioned media. For JIB-04 treatment, normoxic cells were pre-treated with 62.5 nM JIB-04 (Xcessbio) for 24 hrs, then treated again with JIB-04 and either transferred to 1% O2 or maintained in normoxia for an additional 24 hrs. Succinate was administered at a final concentration of 2 mM and cells were either maintained in normoxia for 72 hrs or maintained in normoxia for 48 hrs prior to being transferred to 1% O2 for 24 hrs.
FISH was performed as described in (Black et al., 2013; Manning et al., 2010). Probes for 1q12h, 1q telomere, chromosome 8 centromere (alpha satellite), and X centromere (alpha satellite) were purchased from Rainbow Scientific. Probes for Xq13.1 (RP11-177A4), Zebrafish BCL9 (CH73-15J19) and Zebrafish IGBP1 (CH73-223D24) were purchased as BAC clones from Children's Hospital Oakland Research Institute (CHORI BacPac) clone repository. Probes for 1q21.2 (BCL9) and 1q23.3 were purchased from Agilent (SureFISH).
FISH was performed as described in (Black et al., 2013; Manning et al., 2010). Probes for 1q12h, 1q telomere, chromosome 8 centromere (alpha satellite), and X centromere (alpha satellite) were purchased from Rainbow Scientific. Probes for Xq13.1 (RP11-177A4), Zebrafish BCL9 (CH73-15J19) and Zebrafish IGBP1 (CH73-223D24) were purchased as BAC clones from Children's Hospital Oakland Research Institute (CHORI BacPac) clone repository. Probes for 1q21.2 (BCL9) and 1q23.3 were purchased from Agilent (SureFISH). BACS were prepared utilizing PureLink HiPure™ Plasmid Filter Maxiprep kit (Life Technologies) using the recommended modified wash buffer. Probes were nick translated (Abbot Molecular Kit) in the presence of fluorescently labeled dTTP (Enzo Life Science). Images of multiple planes of fields of nuclei were acquired on an Olympus IX81 T Spinning Disk Microscope and analyzed using Slidebook™ 5.0 software. A conservative scoring metric was used for copy gain. Any foci that were touching were scored as a single copy to prevent increased numbers due to normally replicated foci.

[4] = system: cells depleted of KDM4A (shA10); assay: Rapamycin sensitivity of KDM4A-depleted (shA10) cells transfected with wild-type or mutant KDM4A; type: cell-based; settings: shA10 depletion background
Method: Cells were depleted of KDM4A (shA10) and transfected with wild-type (WT) or mutant KDM4A. […] This differed from WT expression in the depletion background, which was less sensitive. […]
The effect of KMD4A mutations on drug sensitivity was examined by depleting cells of KDM4A (shA10) and then transfecting with wild-type or mutant KDM4A. The sensitivity of the cells to rapamycin was then determined. […] This differed from WT expression in the depletion background, which was less sensitive.

HEK 293T cells = assay: Monitored cell proliferation assay (xCELLigence growth curves, doubling time); type: cell-based, human
Method: Seventy two hours post transfection 1×10^4 HEK 293T cells were seeded per well of a 96 well plate, and then treated after 24h. Cell proliferation was monitored with an xCELLigence system (Roche) (Vistejnova et al., 2009).

H3K36me3 = assay: H3K36 demethylase activity of KDM4A variants in transfected cells (immunofluorescence); type: cell-based; set-up: key: + indicates active; − indicates inactive; +/− indicates partial acitivty; settings: KDM4A mutations
H3K9me3 = assay: H3K9 demethylase activity of KDM4 variants in transfected cells; type: cell-based; set-up: key: + indicates active; − indicates inactive; +/− indicates partial acitivty; settings: KDM4A mutations

Molecule: NC(=O)NO [HU, hydroxyurea]
- apoptosis (percent Annexin V positive cells) (RPE cells [1]): no observed increased apoptosis

Molecule: O=C(O)CCC(=O)O [succinate, reference compound]
- KDM4A protein levels in hypoxia (KDM4A; 1% O2): did not alter KDM4A stabilization
- cell cycle profile (RPE cells [2]; normoxia and hypoxia): did not alter KDM4A stabilization or cell cycle progression
- hypoxia-dependent copy gain of 1q12h ([3]; 1% O2 24 hours, JIB-04 62.5 nM or 2 mM succinate pre-treatment, or overexpression): sufficient to abrogate hypoxia-dependent copy gain of 1q12h
- hypoxia-induced 1q12h copy number gains ([3]; 4% oxygen, transfection or 2 mM succinate for 24 hours): antagonized

Molecule: Tunicamycin
- KDM4A protein levels under stress (KDM4A; 24 hours): significantly increased KDM4A levels
- cell cycle profile under stress (RPE cells [2]; 24 hours): resulted in altered cell cycle profiles
- site-specific copy gain (1q12h and 1q21.2) under stress ([3]; 24 hours, 2 μg/ml Tunicamycin): did not promote site-specific copy gain

B1: KDM4A WT: wild type KDM4A (major allele E482) (protein)
chain: MASESETLNPSARIMTFYPTMEEFRNFSRYIAYIESQGAHRAGLAKVVPPKEWKPRASYDDIDDLVIPAPIQQLVTGQSGLFTQYNIQKKAMTVREFRKIANSDKYCTPRYSEFEELERKYWKNLTFNPPIYGADVNGTLYEKHVDEWNIGRLRTILDLVEKESGITIEGVNTPYLYFGMWKTSFAWHTEDMDLYSINYLHFGEPKSWYSVPPEHGKRLERLAKGFFPGSAQSCEAFLRHKMTLISPLMLKKYGIPFDKVTQEAGEFMITFPYGYHAGFNHGFNCAESTNFATRRWIEYGKQAVLCSCRKDMVKISMDVFVRKFQPERYKLWKAGKDNTVIDHTLPTPEAAEFLKESELPPRAGNEEECPEEDMEGVEDGEEGDLKTSLAKHRIGTKRHRVCLEIPQEVSQSELFPKEDLSSEQYEMTECPAALAPVRPTHSSVRQVEDGLTFPDYSDSTEVKFEELKNVKLEEEDEEEEQEAAALDLSVNPASVGGRLVFSGSKKKSSSSLGSGSSRDSISSDSETSEPLSCRAQGQTGVLTVHSYAKGDGRVTVGEPCTRKKGSAARSFSERELAEVADEYMFSLEENKKSKGRRQPLSKLPRHHPLVLQECVSDDETSEQLTPEEEAEETEAWAKPLSQLWQNRPPNFEAEKEFNETMAQQAPHCAVCMIFQTYHQVEFGGFNQNCGNASDLAPQKQRTKPLIPEMCFTSTGCSTDINLSTPYLEEDGTSILVSCKKCSVRVHASCYGVPPAKASEDWMCSRCSANALEEDCCLCSLRGGALQRANDDRWVHVSCAVAILEARFVNIAERSPVDVSKIPLPRFKLKCIFCKKRRKRTAGCCVQCSHGRCPTAFHVSCAQAAGVMMQPDDWPFVVFITCFRHKIPNLERAKGALQSITAGQKVISKHKNGRFYQCEVVRLTTETFYEVNFDDGSFSDNLYPEDIVSQDCLQFGPPAEGEVVQVRWTDGQVYGAKFVASHPIQMYQVEFEDGSQLVVKRDDVYTLDEELPKRVKSRLSVASDMRFNEIFTEKEVKQEKKRQRVINSRYREDYIEPALYRAIME
modifications: left off: large carriers
- sensitivity of cells to rapamycin [4]: reduced the sensitivity of the cells
- rescue of increased sensitivity to AZD8055 due to KDM4A depletion (doubling time 5h-35h) (HEK 293T cells; shRNA KDM4A plus non targetable GFP-KDM4A constructs): rescues
- rescue of increased sensitivity to Rapamycin of KDM4A depleted cells (doubling time 5h-35h) (HEK 293T cells; shRNA KDM4A plus shRNA-resistant GFP-KDM4A constructs): rescues

B2: H188A: catalytic mutant of KDM4A (protein, UniProt O75164 2-1064, looked up, variant H188A)
Lysine-specific demethylase 4A: ASESETLNPSARIMTFYPTMEEFRNFSRYIAYIESQGAHRAGLAKVVPPKEWKPRASYDDIDDLVIPAPIQQLVTGQSGLFTQYNIQKKAMTVREFRKIANSDKYCTPRYSEFEELERKYWKNLTFNPPIYGADVNGTLYEKHVDEWNIGRLRTILDLVEKESGITIEGVNTPYLYFGMWKTSFAWATEDMDLYSINYLHFGEPKSWYSVPPEHGKRLERLAKGFFPGSAQSCEAFLRHKMTLISPLMLKKYGIPFDKVTQEAGEFMITFPYGYHAGFNHGFNCAESTNFATRRWIEYGKQAVLCSCRKDMVKISMDVFVRKFQPERYKLWKAGKDNTVIDHTLPTPEAAEFLKESELPPRAGNEEECPEEDMEGVEDGEEGDLKTSLAKHRIGTKRHRVCLEIPQEVSQSELFPKEDLSSEQYEMTECPAALAPVRPTHSSVRQVEDGLTFPDYSDSTEVKFEELKNVKLEEEDEEEEQAAAALDLSVNPASVGGRLVFSGSKKKSSSSLGSGSSRDSISSDSETSEPLSCRAQGQTGVLTVHSYAKGDGRVTVGEPCTRKKGSAARSFSERELAEVADEYMFSLEENKKSKGRRQPLSKLPRHHPLVLQECVSDDETSEQLTPEEEAEETEAWAKPLSQLWQNRPPNFEAEKEFNETMAQQAPHCAVCMIFQTYHQVEFGGFNQNCGNASDLAPQKQRTKPLIPEMCFTSTGCSTDINLSTPYLEEDGTSILVSCKKCSVRVHASCYGVPPAKASEDWMCSRCSANALEEDCCLCSLRGGALQRANDDRWVHVSCAVAILEARFVNIAERSPVDVSKIPLPRFKLKCIFCKKRRKRTAGCCVQCSHGRCPTAFHVSCAQAAGVMMQPDDWPFVVFITCFRHKIPNLERAKGALQSITAGQKVISKHKNGRFYQCEVVRLTTETFYEVNFDDGSFSDNLYPEDIVSQDCLQFGPPAEGEVVQVRWTDGQVYGAKFVASHPIQMYQVEFEDGSQLVVKRDDVYTLDEELPKRVKSRLSVASDMRFNEIFTEKEVKQEKKRQRVINSRYREDYIEPALYRAIME
- sensitivity of cells to rapamycin [4]: did not reduce drug sensitivity

B3: 2A-R1025C*: KDM4A mutation (protein, UniProt O75164 2-1064, looked up, variant R1025C)
Lysine-specific demethylase 4A: B2 Lysine-specific demethylase 4A with A187H, R1024C
- H3k36 Demethylase Activity (H3K36me3): +
- sensitivity of cells to rapamycin [4]: equally as sensitive as KDM4A/JMJD2A depletion
- H3k9 Demethylase Activity (H3K9me3): +
